Structures can show the parent of a compound that is named as a salt.

The target in one experiment is Lck (h) (Homo sapiens, UniProt P06239). The experiment in a line: Lck Human  Kinase Enzymatic Radiometric Assay. The experiment is classed as biochemical. As to conditions: read-out: Lck IC50 nM Range*. In outline: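 Substrate 33P-incorporation measured by scintillation counting after spotting on P30 filtermat and phosphoric acid washes. Human Lck reacted 40 min at RT in 50 mM Tris pH 7.5 with 10 mM MgAcetate, [gamma-33P]-ATP, 250 uM Cdc2 peptide, 0.1 mM EGTA and 0.1 mM Na3VO4.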

Experiment [1] has as its target T1, Recombinant (1-346) HPK1 (h) (Homo sapiens, UniProt Q92918).
T1 construct: Recombinant (1-346) HPK1 (h) is incubated with 8 mM MOPS pH 7.0
T1 sequence (Q92918 1-346): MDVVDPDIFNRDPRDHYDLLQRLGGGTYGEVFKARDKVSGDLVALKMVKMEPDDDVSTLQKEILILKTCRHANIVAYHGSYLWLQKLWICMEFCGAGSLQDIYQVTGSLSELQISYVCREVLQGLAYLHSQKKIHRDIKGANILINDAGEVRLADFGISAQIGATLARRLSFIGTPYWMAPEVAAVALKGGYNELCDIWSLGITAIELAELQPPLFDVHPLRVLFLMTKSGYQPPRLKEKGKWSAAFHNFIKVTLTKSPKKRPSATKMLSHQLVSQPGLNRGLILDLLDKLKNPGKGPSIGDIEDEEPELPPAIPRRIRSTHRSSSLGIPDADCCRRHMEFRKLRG
The experiment in a line: HPK1 Human STE Kinase Enzymatic Radiometric Assay. The experiment is classed as biochemical. As to conditions: read-out: HPK1 IC50 nM Range*. As for the experimental part:
A stock solution of 10 mM of test compound is prepared in DMSO. The compound plate was prepared by 3-fold and 9-point serial dilutions. […] The reaction is initiated by The addition of the Mg/ATP mix. After incubation for 40 minutes at RT, the reaction is stopped by the addition of phosphoric acid to a concentration of 0.5%.

Chain of Lck (h) (P06239 whole entry): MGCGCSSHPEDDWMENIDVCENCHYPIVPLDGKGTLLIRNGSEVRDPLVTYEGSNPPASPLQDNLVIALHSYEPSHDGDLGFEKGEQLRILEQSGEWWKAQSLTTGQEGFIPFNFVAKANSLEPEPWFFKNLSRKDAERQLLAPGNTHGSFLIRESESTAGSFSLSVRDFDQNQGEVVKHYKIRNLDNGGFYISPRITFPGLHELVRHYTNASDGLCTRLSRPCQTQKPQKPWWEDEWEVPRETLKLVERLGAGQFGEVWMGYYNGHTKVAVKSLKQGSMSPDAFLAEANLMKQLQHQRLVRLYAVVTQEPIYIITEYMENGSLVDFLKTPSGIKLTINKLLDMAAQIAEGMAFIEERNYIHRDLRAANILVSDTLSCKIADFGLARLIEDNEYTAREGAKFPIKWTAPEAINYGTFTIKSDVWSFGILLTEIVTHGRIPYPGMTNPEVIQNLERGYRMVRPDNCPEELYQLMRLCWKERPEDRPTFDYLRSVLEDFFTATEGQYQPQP

Broadly, the IC50 is the midpoint of a concentration-inhibition curve. `CN1CCN(c2ccc(-c3cc(-c4cc5c(cc4F)C(=O)NCC5)c(N)nc3F)c(Cl)c2)CC1` [I-252, 6-(2-amino-5-(2-chloro-4-(4-methylpiperazin-1-yl)phenyl)-6-fluoropyridin-3-yl)-7-fluoro-3,4-dihydroisoquinolin-1(2H)-one]: the figures for the IC50 (on Lck (h); in experiment [1]) were above 1000 nM and 0.1 to 10 nM, respectively.
For `CN1CCc2cc(-c3cc(-c4ccc5c(c4)CCNC5=O)c(N)nc3F)ccc21` [I-253, 6-(2-amino-6-fluoro-5-(1-methylindolin-5-yl)pyridin-3-yl)-3,4-dihydroisoquinolin-1(2H)-one], in that order: above 1000 nM and 11 to 100 nM.
For `CN1CCc2cc(-c3cc(-c4ccc5c(c4)CCNC5=O)c(N)nc3F)ccc2C1` [I-254, 6-(2-amino-6-fluoro-5-(2-methyl-1,2,3,4-tetrahydroisoquinolin-6-yl)pyridin-3-yl)-3,4-dihydroisoquinolin-1(2H)-one], the figures for the IC50 (on Lck (h); in experiment [1]) were above 1000 nM and 11 to 100 nM, respectively.
As to `Nc1nc(F)c(-c2ccc3c(c2)CCNC3)cc1-c1ccc2c(c1)CCNC2=O` [I-255, 6-(2-amino-6-fluoro-5-(1,2,3,4-tetrahydroisoquinolin-6-yl)pyridin-3-yl)-3,4-dihydroisoquinolin-1(2H)-one 2,2,2-trifluoroacetate], the IC50 on Lck (h) is above 1000 nM; in experiment [1] it was 0.1 to 10 nM.
Consider `Nc1nc(F)c(-c2ccc(C3CCN(CC(F)F)CC3)cc2)cc1-c1cc2c(cc1F)C(=O)NCC2` [I-256, 6-(2-amino-5-(4-(1-(2,2-difluoroethyl)piperidin-4-yl)phenyl)-6-fluoropyridin-3-yl)-7-fluoro-3,4-dihydroisoquinolin-1(2H)-one], for which the IC50 on Lck (h) was above 1000 nM; in experiment [1] it was 0.1 to 10 nM.
Taken in the same sequence, the figures for `Nc1nc(F)c(-c2ccc(CN3CCOCC3)cc2)cc1-c1ccc2c(c1)CCNC2=O` [I-257, 6-(2-amino-6-fluoro-5-(4-(morpholinomethyl)phenyl)pyridin-3-yl)-3,4-dihydroisoquinolin-1(2H)-one] were above 1000 nM and 11 to 100 nM.
For `CN1CCN(Cc2ccc(-c3cc(-c4ccc5c(c4)CCNC5=O)c(N)nc3F)cc2)CC1` [I-258, 6-(2-amino-6-fluoro-5-(4-((4-methylpiperazin-1-yl)methyl)phenyl)pyridin-3-yl)-3,4-dihydroisoquinolin-1(2H)-one], in that order: above 1000 nM and 11 to 100 nM.
With `CN1CCN(C(=O)c2ccc(-c3cc(-c4ccc5c(c4)CCNC5=O)c(N)nc3F)cc2)CC1` [I-259, 6-(2-amino-6-fluoro-5-(4-(4-methylpiperazine-1-carbonyl)phenyl)pyridin-3-yl)-3,4-dihydroisoquinolin-1(2H)-one], the IC50 was above 1000 nM at Lck (h) and 11 to 100 nM in experiment [1].
Turning to `CN1CCN(C2(c3ccc(-c4cc(-c5ccc6c(c5)CCNC6=O)c(N)nc4F)cc3)CC2)CC1` [I-260, 6-(2-amino-6-fluoro-5-(4-(1-(4-methylpiperazin-1-yl)cyclopropyl)phenyl)pyridin-3-yl)-3,4-dihydroisoquinolin-1(2H)-one], the IC50 is above 1000 nM on Lck (h) and 11 to 100 nM in experiment [1].
Take `CC(C)N1CCC(Oc2ccc(-c3cc(-c4ccc5c(c4)CCNC5=O)c(N)nc3F)cc2C(F)(F)F)CC1` [I-261, 6-(2-amino-6-fluoro-5-(4-((1-isopropylpiperidin-4-yl)oxy)-3-(trifluoromethyl)phenyl)pyridin-3-yl)-3,4-dihydroisoquinolin-1(2H)-one]: the IC50 on Lck (h) was above 1000 nM; in experiment [1] it was 11 to 100 nM.
Turning to `COCCN1CCC(Oc2ccc(-c3cc(-c4ccc5c(c4)CCNC5=O)c(N)nc3F)cc2C(F)(F)F)CC1` [I-262, 6-(2-amino-6-fluoro-5-(4-((1-(2-methoxyethyl)piperidin-4-yl)oxy)-3-(trifluoromethyl)phenyl)pyridin-3-yl)-3,4-dihydroisoquinolin-1(2H)-one], the results for the IC50 (on Lck (h); in experiment [1]) were above 1000 nM and 0.1 to 10 nM, respectively.
Taken in the same sequence, the figures for `CC(C)N1CCN(c2ccc(-c3cc(-c4cc5c(cc4F)C(=O)NCC5)c(N)nc3F)cc2C(F)(F)F)CC1` [I-263, 6-(2-amino-6-fluoro-5-(4-(4-isopropylpiperazin-1-yl)-3-(trifluoromethyl)phenyl)pyridin-3-yl)-7-fluoro-3,4-dihydroisoquinolin-1(2H)-one] were above 1000 nM and 0.1 to 10 nM.
For `COCCN1CCN(c2ccc(-c3cc(-c4cc5c(cc4F)C(=O)NCC5)c(N)nc3F)cc2C(F)(F)F)CC1` [I-264, 6-(2-amino-6-fluoro-5-(4-(4-(2-methoxyethyl)piperazin-1-yl)-3-(trifluoromethyl)phenyl)pyridin-3-yl)-7-fluoro-3,4-dihydroisoquinolin-1(2H)-one], the IC50 is above 1000 nM on Lck (h) and 0.1 to 10 nM in experiment [1].
For `Nc1nc(F)c(-c2cccc(CN3CCNCC3)c2)cc1-c1ccc2c(c1)CCNC2=O` [I-265, 6-(2-amino-6-fluoro-5-(3-(piperazin-1-ylmethyl)phenyl)pyridin-3-yl)-3,4-dihydroisoquinolin-1(2H)-one formate], in that order: above 1000 nM and 11 to 100 nM.
Taken in the same sequence, the figures for `COCCN1CCc2cc(-c3cc(-c4ccc5c(c4)CCNC5=O)c(N)nc3F)ccc2C1` [I-266, 6-(2-amino-6-fluoro-5-(2-(2-methoxyethyl)-1,2,3,4-tetrahydroisoquinolin-6-yl)pyridin-3-yl)-3,4-dihydroisoquinolin-1(2H)-one] were above 1000 nM and 11 to 100 nM.
As to `CC(C)N1CCC(Oc2ccc(-c3cc(-c4ccc5c(c4)CCNC5=O)c(N)nc3F)cc2)CC1` [I-267, 6-(2-amino-6-fluoro-5-(4-((1-isopropylpiperidin-4-yl)oxy)phenyl)pyridin-3-yl)-3,4-dihydroisoquinolin-1(2H)-one], the half-maximal inhibitory concentration (IC50) at Lck (h) is above 1000 nM; in experiment [1] it was 0.1 to 10 nM.
On to `CC(C)N1CCC(Oc2ccc(-c3cc(-c4ccc5c(c4)CCNC5=O)c(N)nc3F)cc2F)CC1` [I-268, 6-(2-amino-6-fluoro-5-(3-fluoro-4-((1-isopropylpiperidin-4-yl)oxy)phenyl)pyridin-3-yl)-3,4-dihydroisoquinolin-1(2H)-one], for which the IC50 is above 1000 nM on Lck (h) and 0.1 to 10 nM in experiment [1].
For `COCCN1CCC(Oc2ccc(-c3cc(-c4ccc5c(c4)CCNC5=O)c(N)nc3F)cc2F)CC1` [I-269, 6-(2-amino-6-fluoro-5-(3-fluoro-4-((1-(2-methoxyethyl)piperidin-4-yl)oxy)phenyl)pyridin-3-yl)-3,4-dihydroisoquinolin-1(2H)-one], in that order: above 1000 nM and 0.1 to 10 nM.
For `CC(C)N1CCC(Oc2ccc(-c3cc(-c4ccc5c(c4)CCNC5=O)c(N)nc3F)c(F)c2F)CC1` [I-270, 6-(2-amino-5-(2,3-difluoro-4-((1-isopropylpiperidin-4-yl)oxy)phenyl)-6-fluoropyridin-3-yl)-3,4-dihydroisoquinolin-1(2H)-one], in that order: above 1000 nM and 11 to 100 nM.
For `CC(C)N1CCC(Oc2cc(F)c(-c3cc(-c4ccc5c(c4)CCNC5=O)c(N)nc3F)cc2F)CC1` [I-271, 6-(2-amino-5-(2,5-difluoro-4-((1-isopropylpiperidin-4-yl)oxy)phenyl)-6-fluoropyridin-3-yl)-3,4-dihydroisoquinolin-1(2H)-one], in that order: above 1000 nM and 11 to 100 nM.
`COc1cc(OC2CCN(C(C)C)CC2)ccc1-c1cc(-c2ccc3c(c2)CCNC3=O)c(N)nc1F` [I-272, 6-(2-amino-6-fluoro-5-(4-((1-isopropylpiperidin-4-yl)oxy)-2-methoxyphenyl)pyridin-3-yl)-3,4-dihydroisoquinolin-1(2H)-one]: the IC50 at Lck (h) is above 1000 nM; in experiment [1], 0.1 to 10 nM.
Taken in the same sequence, the figures for `COc1cc(-c2cc(-c3ccc4c(c3)CCNC4=O)c(N)nc2F)ccc1OC1CCN(C(C)C)CC1` [I-273, 6-(2-amino-6-fluoro-5-(4-((1-isopropylpiperidin-4-yl)oxy)-3-methoxyphenyl)pyridin-3-yl)-3,4-dihydroisoquinolin-1(2H)-one] were above 1000 nM and 0.1 to 10 nM.
For `CC(C)N1CCC[C@H](Oc2ccc(-c3cc(-c4ccc5c(c4)CCNC5=O)c(N)nc3F)cc2)C1` [I-274, (S)-6-(2-amino-6-fluoro-5-(4-((1-isopropylpiperidin-3-yl)oxy)phenyl)pyridin-3-yl)-3,4-dihydroisoquinolin-1(2H)-one], in that order: above 1000 nM and 0.1 to 10 nM.
Taken in the same sequence, the figures for `CC(C)N1CCC(Oc2ccc(-c3cc(-c4ccc5c(c4)CCNC5=O)c(N)nc3F)c3c2OCO3)CC1` [I-275, 6-(2-amino-6-fluoro-5-(7-((1-isopropylpiperidin-4-yl)oxy)benzo[d][1,3]dioxol-4-yl)pyridin-3-yl)-3,4-dihydroisoquinolin-1(2H)-one] were above 1000 nM and 0.1 to 10 nM.
As to `CNCC1Cc2cc(-c3cc(-c4ccc5c(c4)CCNC5=O)c(N)nc3F)ccc2C(=O)N1` (centres unmarked) [I-276, 6-(6-amino-2-fluoro-5-(1-oxo-1,2,3,4-tetrahydroisoquinolin-6-yl)pyridin-3-yl)-3-((methylamino)methyl)-3,4-dihydroisoquinolin-1(2H)-one], the figures for the concentration for half-maximal inhibition (IC50) (on Lck (h); in experiment [1]) were above 1000 nM and 11 to 100 nM, respectively.
